# According to patent US6339045B1, “N-(unsubstituted or substituted)-4-substituted-6-(unsubstituted or substituted)phenoxy-2-pyridinecarboxamides or thiocarboxamides, processes for producing the same, and herbicides” (Kureha Kagaku Kogyo Kabushiki Kaisha, priority 1995, dated 2002):
# How the values were obtained:
# Experiment in all cases: Herbicidal effect by foliage and soil treatment
# Type in all cases: in vivo
# Conditions in all cases: 10 g ai/10a, evaluated after 14 days
# [1] = tested on: black nightshade (Solanum nigrum)
# Source text: (§1) Experiment for Determination of Herbicidal Effect by Foliate and Soil Treatment Seeds of redroot pigweed (Amaranthus retroflexus), common blackjack (Bidens pilosa), kediock (Sinapis arvensis), common chickweed (Stellaria media), sicklepod (Cassia obtusifolia), black nightshade (Solanum nigrum), velvetleaf (Abutilon theophrasti), field bindweed (Convolvulus arvensis), wild chamomile (Matricaria chamomilla), cleavers (Galium aparine) and […] (Veronica hederaefolia), were uniformly sowed over a horticultural granular soil (produced by KUREHA CHEMICAL INDUSTRY, CO., LTD.; the same soil was used hereinafter) filled in a planter. The planter was placed in a greenhouse (maintained at 19 to 25° C.) to sprout these plants. Two seedlings of each sprouted plant were transplanted to a 10 cm-diameter pot filled with the horticultural granular soil and cultivated in the greenhouse (maintained at 19 to 25° C.) until reaching a cotyledonal to bifoliate period suited to the foliage and soil treatment. […] Next, additional amounts of Tween 20 and water were added to the obtained solution or suspension to produce a test solution. The plants prepared in the above (1) were placed within a frame having a predetermined inside area, and uniformly sprayed with the test solution using a sprayer such that the amount of each compound applied was controlled to a predetermined level. The plants sprayed with the test solution were placed again in the greenhouse (maintained at 19 to 25° C.) and cultivated therein. After 14 days, the degree of growth of each plant cultivated in the treated region was compared with that of plant cultivated in non-treated region, and evaluated according to the following ratings. The herbicidal activity of each test compound was represented by these ratings
# [2] = tested on: cleavers (Galium aparine)
# Source text: as §1
# [3] = tested on: common blackjack (Bidens pilosa)
# Source text: as §1
# [4] = tested on: common chickweed (Stellaria media)
# Source text: as §1
# [5] = tested on: field bindweed (Convolvulus arvensis)
# Source text: as §1
# [6] = tested on: ivyleafspeedwell (Veronica hederaefolia)
# Source text: as §1
# [7] = tested on: kediock (Sinapis arvensis)
# Source text: as §1
# [8] = tested on: redroot pigweed (Amaranthus retroflexus)
# Source text: as §1
# [9] = tested on: sicklepod (Cassia obtusifolia)
# Source text: as §1
# [10] = tested on: velvetleaf (Abutilon theophrasti)
# Source text: as §1
# [11] = tested on: wild chamomile (Matricaria chamomilla)
# Source text: as §1
SMILES,"herbicidal activity rating, SN (Solanum nigrum) [1]","herbicidal activity rating, GA (Galium aparine) [2]","herbicidal activity rating, BP (Bidens pilosa) [3]","herbicidal activity rating, SM (Stellaria media) [4]","herbicidal activity rating, CA (Convolvulus arvensis) [5]","herbicidal activity rating, VH (Veronica hederaefolia) [6]","herbicidal activity rating, SA (Sinapis arvensis) [7]","herbicidal activity rating, AR (Amaranthus retroflexus) [8]","herbicidal activity rating, CO (Cassia obtusifolia) [9]","herbicidal activity rating, AT (Abutilon theophrasti) [10]","herbicidal activity rating, MC (Matricaria chamomilla) [11]"
CCCCNC(=O)c1cc(OC)cc(Oc2cccc(C(F)(F)F)c2)n1 [Compound I-36],5 (percentage of weeds killed was not less than 80%),5 (percentage of weeds killed was not less than 80%),5 (percentage of weeds killed was not less than 80%),5 (percentage of weeds killed was not less than 80%),5 (percentage of weeds killed was not less than 80%),5 (percentage of weeds killed was not less than 80%),5 (percentage of weeds killed was not less than 80%),5 (percentage of weeds killed was not less than 80%),5 (percentage of weeds killed was not less than 80%),4 (percentage of weeds killed was not less than 60% and less than 80%),5 (percentage of weeds killed was not less than 80%)
"COc1cc(Oc2cccc(C(F)(F)F)c2)nc(C(=O)NC(C)C)c1 [Compound I-37, N-(i-propyl)-4-methoxy-6-{3-(trifluoromethyl)phenoxy}-2-pyridine carboxamide]",5 (percentage of weeds killed was not less than 80%),5 (percentage of weeds killed was not less than 80%),5 (percentage of weeds killed was not less than 80%),5 (percentage of weeds killed was not less than 80%),5 (percentage of weeds killed was not less than 80%),5 (percentage of weeds killed was not less than 80%),5 (percentage of weeds killed was not less than 80%),5 (percentage of weeds killed was not less than 80%),5 (percentage of weeds killed was not less than 80%),4 (percentage of weeds killed was not less than 60% and less than 80%),5 (percentage of weeds killed was not less than 80%)
COc1cc(Oc2cccc(OC(F)F)c2)nc(C(=O)NC(C)C)c1 [Compound I-38],5 (percentage of weeds killed was not less than 80%),5 (percentage of weeds killed was not less than 80%),2 (percentage of weeds killed was not less than 20% and less than 40%),4 (percentage of weeds killed was not less than 60% and less than 80%),4 (percentage of weeds killed was not less than 60% and less than 80%),5 (percentage of weeds killed was not less than 80%),5 (percentage of weeds killed was not less than 80%),5 (percentage of weeds killed was not less than 80%),4 (percentage of weeds killed was not less than 60% and less than 80%),4 (percentage of weeds killed was not less than 60% and less than 80%),4 (percentage of weeds killed was not less than 60% and less than 80%)
COc1cc(Oc2cccc(OC(F)(F)F)c2)nc(C(=O)NC(C)C)c1 [Compound I-39],5 (percentage of weeds killed was not less than 80%),5 (percentage of weeds killed was not less than 80%),3 (percentage of weeds killed was not less than 40% and less than 60%),5 (percentage of weeds killed was not less than 80%),5 (percentage of weeds killed was not less than 80%),5 (percentage of weeds killed was not less than 80%),5 (percentage of weeds killed was not less than 80%),5 (percentage of weeds killed was not less than 80%),5 (percentage of weeds killed was not less than 80%),5 (percentage of weeds killed was not less than 80%),4 (percentage of weeds killed was not less than 60% and less than 80%)
"COc1cc(Oc2cccc(SC(F)(F)F)c2)nc(C(=O)NC(C)C)c1 [Compound I-40, N-(i-propyl)-4-methoxy-6-{3-(trifluoromethylmercapto)phenoxy}-2-pyridine carboxamide]",5 (percentage of weeds killed was not less than 80%),5 (percentage of weeds killed was not less than 80%),4 (percentage of weeds killed was not less than 60% and less than 80%),5 (percentage of weeds killed was not less than 80%),5 (percentage of weeds killed was not less than 80%),5 (percentage of weeds killed was not less than 80%),5 (percentage of weeds killed was not less than 80%),5 (percentage of weeds killed was not less than 80%),5 (percentage of weeds killed was not less than 80%),5 (percentage of weeds killed was not less than 80%),4 (percentage of weeds killed was not less than 60% and less than 80%)
C=CCNC(=O)c1cc(OC)cc(Oc2cccc(C(F)(F)F)c2)n1 [Compound I-42],5 (percentage of weeds killed was not less than 80%),5 (percentage of weeds killed was not less than 80%),3 (percentage of weeds killed was not less than 40% and less than 60%),5 (percentage of weeds killed was not less than 80%),4 (percentage of weeds killed was not less than 60% and less than 80%),5 (percentage of weeds killed was not less than 80%),5 (percentage of weeds killed was not less than 80%),5 (percentage of weeds killed was not less than 80%),5 (percentage of weeds killed was not less than 80%),4 (percentage of weeds killed was not less than 60% and less than 80%),4 (percentage of weeds killed was not less than 60% and less than 80%)
